According to patent US6432655B1, “Method of obtaining compositions” (Synaptic Pharmaceutical Corporation, priority 1992, dated 2002):
Read-outs that look alike come from different tables or passages of the source.

Key:
human 5-HT4B receptor [1] = target: T1, human 5-HT4B receptor (Homo sapiens, UniProt P34969); assay: cAMP formation in intact, transiently transfected Cos-7 cells; format: cell-based
T1 construct: The entire coding region of the human 5-HT4B receptor (1338 bp); expressed in transfected cells

[2] = target: T2, human 5-HT4B receptor (clone hp78a) (Homo sapiens, UniProt P34969); assay: [3H]5-HT radioligand binding to membranes of Cos-7 cells transiently expressing clone hp78a
T2 construct: The entire coding region of the human 5-HT4B receptor (1338 bp); expressed in transfected cells; host or cells: Cos-7 (monkey kidney), transient, plasmid hp78a/EXJ (pcEXV-5HT4B)

human 5-HT4B receptor [3] = target: T1, human 5-HT4B receptor; assay: cell-based; format: cell-based; details: for Emax: L-M(TK-), read-out: Emax* (% 5-HT RESPONSE)
5-HT4B receptor = target: T3, 5-HT4B receptor (Rattus norvegicus, UniProt P32305); assay: [3H]5-CT receptor autoradiography on rat brain sections; format: binding; details: masks: 100 nM PAPP and 160 nM (−)pindolol added together
T3 construct: from tissue; host or cells: rat brain cryostat sections (20 µm)

human 5-HT1F receptor = target: T4, human 5-HT1F receptor (Homo sapiens, UniProt P30939); details: cited from earlier work
T4 sequence (P30939 1-366): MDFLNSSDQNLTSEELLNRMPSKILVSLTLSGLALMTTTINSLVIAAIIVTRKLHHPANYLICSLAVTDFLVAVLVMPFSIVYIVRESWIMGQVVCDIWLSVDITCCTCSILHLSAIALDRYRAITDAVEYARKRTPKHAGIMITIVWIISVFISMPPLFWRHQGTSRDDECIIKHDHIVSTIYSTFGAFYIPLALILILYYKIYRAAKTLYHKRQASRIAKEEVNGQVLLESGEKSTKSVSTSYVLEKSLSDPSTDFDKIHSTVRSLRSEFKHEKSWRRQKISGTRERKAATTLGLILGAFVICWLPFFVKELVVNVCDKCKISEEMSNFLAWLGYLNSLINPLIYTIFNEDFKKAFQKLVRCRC

human 5-HT1E receptor = human 5-HT1E receptor (Homo sapiens, UniProt P28566); details: cited from earlier work
[4] = read-out: Ki (apparent dissociation constants for clone hp78a)
[5] = Ki (apparent dissociation constants for clone hp78a)
[6] = 30 nM competitor, 5 nM [3H]5-HT, 30 min at 37° C.
[7] = 5 nM [3H]5-HT, seven concentrations of competitor, 30 min at 37° C., mean ± S.E.M., 2-5 determinations, read-out: Ki (apparent dissociation constants for clone hp78a)
[8] = 100 nM competitor, 5 nM [3H]5-HT, 30 min at 37° C.

T2 sequence (P34969 1-445 isoform P34969-2): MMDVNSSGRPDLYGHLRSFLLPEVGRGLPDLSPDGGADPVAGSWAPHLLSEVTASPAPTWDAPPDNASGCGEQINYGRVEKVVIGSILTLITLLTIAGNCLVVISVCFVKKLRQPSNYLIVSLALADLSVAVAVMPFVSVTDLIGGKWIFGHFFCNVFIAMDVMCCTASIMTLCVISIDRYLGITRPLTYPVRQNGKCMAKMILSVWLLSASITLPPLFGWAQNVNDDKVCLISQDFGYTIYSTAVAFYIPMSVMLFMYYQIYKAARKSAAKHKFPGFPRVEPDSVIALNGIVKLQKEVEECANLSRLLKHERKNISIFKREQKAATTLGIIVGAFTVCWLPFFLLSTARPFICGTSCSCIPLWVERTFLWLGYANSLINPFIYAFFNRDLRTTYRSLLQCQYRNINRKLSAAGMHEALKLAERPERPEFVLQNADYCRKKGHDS
T1 sequence (P34969 1-445 isoform P34969-2): as above
T3 sequence (P32305 whole entry): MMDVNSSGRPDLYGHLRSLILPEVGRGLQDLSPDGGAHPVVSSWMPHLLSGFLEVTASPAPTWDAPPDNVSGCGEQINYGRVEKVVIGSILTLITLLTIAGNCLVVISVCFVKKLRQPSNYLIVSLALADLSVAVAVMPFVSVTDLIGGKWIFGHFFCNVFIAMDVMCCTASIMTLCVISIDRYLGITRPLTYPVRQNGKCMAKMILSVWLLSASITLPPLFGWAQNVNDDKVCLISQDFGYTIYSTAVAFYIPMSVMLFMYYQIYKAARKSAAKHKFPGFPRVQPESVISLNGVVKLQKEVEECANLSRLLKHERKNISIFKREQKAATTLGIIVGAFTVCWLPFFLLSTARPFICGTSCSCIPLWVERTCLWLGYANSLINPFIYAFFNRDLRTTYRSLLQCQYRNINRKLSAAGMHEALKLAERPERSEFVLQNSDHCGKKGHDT
Chain of human 5-HT1E receptor (P28566 whole entry): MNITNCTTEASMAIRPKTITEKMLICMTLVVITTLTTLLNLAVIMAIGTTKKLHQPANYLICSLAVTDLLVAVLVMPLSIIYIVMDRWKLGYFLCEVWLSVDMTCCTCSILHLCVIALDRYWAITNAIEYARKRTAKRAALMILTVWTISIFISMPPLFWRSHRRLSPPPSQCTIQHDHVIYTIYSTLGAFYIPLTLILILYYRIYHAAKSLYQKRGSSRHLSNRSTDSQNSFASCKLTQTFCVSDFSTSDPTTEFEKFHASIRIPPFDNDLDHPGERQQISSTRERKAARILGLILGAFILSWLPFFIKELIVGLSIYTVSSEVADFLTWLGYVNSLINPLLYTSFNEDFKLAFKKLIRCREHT

COc1cc(N)c(Cl)cc1C(=O)NC1CCN(CCCOc2ccc(F)cc2)CC1OC (stereo not drawn) [cisapride]
activity at the clone hp78a receptor (human 5-HT4B receptor [1]; compounds used to define the classical 5-HT4 receptor): either poorly active or inactive

CCCN(CCC)CCc1c[nH]c2ccc(C(N)=O)cc12 [Dipropyl-5-carboxamidotryptamine]
Ki [2, 4]: 37 ± 21 nM
EC50 (human 5-HT4B receptor [3]): 2400 nM
Emax* (% 5-HT RESPONSE) (human 5-HT4B receptor [3]): 86 ± 12 % 5-HT RESPONSE
INTRINSIC ACTIVITY (human 5-HT4B receptor [3]): AGONIST (key: AGONIST indicates that the maximal response to the drug was at least 80% of the maximum response obtained with 5-HT)

CC(N)Cc1c[nH]c2ccc(O)cc12 (racemic) [α-Methyl-5-hydroxy-tryptamine]
Ki [2, 5]: 509 nM

CC(C)C[C@H]1C(=O)N2CCC[C@H]2[C@]2(O)O[C@](NC(=O)[C@@H]3C=C4c5cccc6[nH]c(Br)c(c56)C[C@H]4N(C)C3)(C(C)C)C(=O)N12 [Bromocriptine]
Kb (human 5-HT4B receptor [3]): 240 ± 10 nM
Emax (human 5-HT4B receptor [3]): 0%

NCCc1ccc(O)c(O)c1 [Dopamine]
PERCENT INHIBITION (displacement of specific [3H]5-HT binding) [2, 6]: 0

Cc1cc(C(C)(C)C)c(O)c(C)c1CC1=NCCN1 [Oxymetazoline]
PERCENT INHIBITION (displacement of specific [3H]5-HT binding) ([2]; 10 nM competitor, 5 nM [3H]5-HT, 30 min at 37° C.): 6

CCN(CC)C(=O)[C@@H]1C=C2c3cccc4[nH]cc(c34)C[C@H]2N(C)C1 [d-LSD]
PERCENT INHIBITION (displacement of specific [3H]5-HT binding) [2]: 77
INTRINSIC ACTIVITY (human 5-HT4B receptor [3]): ANTAGONIST
Emax* (% 5-HT RESPONSE) (human 5-HT4B receptor [3]; normalized to the 5-HT maximal response): 0 % 5-HT RESPONSE

CN(C)CCc1c[nH]c2ccc(O)cc12 [Bufotenin]
Ki [2, 5]: 26 nM

CN1C[C@H](C(=O)N[C@]2(C)O[C@@]3(O)[C@@H]4CCCN4C(=O)[C@H](Cc4ccccc4)N3C2=O)C[C@@H]2c3cccc4[nH]cc(c34)C[C@H]21 [Dihydroergotamine]
Ki [2, 5]: 6.9 ± 0.9 nM
INTRINSIC ACTIVITY (human 5-HT4B receptor [3]): ANTAGONIST
Emax (human 5-HT4B receptor [3]): 0%
Kb (human 5-HT4B receptor [3]; dissociation constant of antagonist, KB = [B]/(A′/A) − 1], read-out: KB): 20 ± 4 nM

CC(C)NCC(O)COc1cccc2[nH]ccc12 (single isomer, unassigned; (-)) [(−)pindolol]
effect on [3H]5-CT binding (5-HT4B receptor): markedly reduced

NCCc1c[nH]c2ccc(C(N)=O)cc12 [5-CT, 5-Carboxamidotryptamine]
Ki (human 5-HT1F receptor): > 700 nM
agonist activity (human 5-HT4B receptor [1]): potent agonists
INTRINSIC ACTIVITY (human 5-HT4B receptor [3]): AGONIST (key: AGONIST indicates that the maximal response to the drug was at least 80% of the maximum response obtained with 5-HT)
functional character (human 5-HT4B receptor [3]): potent agonists
Emax (human 5-HT4B receptor [3]): 110 ± 19%
Ki (human 5-HT1E receptor): > 700 nM

COc1ccc2[nH]cc(CCN)c2c1 [5-MeOT, 5-Methoxytryptamine]
agonist activity (human 5-HT4B receptor [1]): potent agonists
INTRINSIC ACTIVITY (human 5-HT4B receptor [3]): AGONIST (key: AGONIST indicates that the maximal response to the drug was at least 80% of the maximum response obtained with 5-HT)
functional character (human 5-HT4B receptor [3]): potent agonists
Emax (human 5-HT4B receptor [3]): 100 ± 5%

O=C(c1ccc(F)cc1)C1CCN(CCn2c(=O)[nH]c3ccccc3c2=O)CC1 [Ketanserin]
Ki [2, 7]: 1330 ± 241 nM

O=C(CCCN1CCC2(CC1)C(=O)NCN2c1ccccc1)c1ccc(F)cc1 [Spiperone]
Ki [2, 7]: 110 ± 17 nM

CNS(=O)(=O)Cc1ccc2[nH]cc(CCN(C)C)c2c1 [Sumatriptan]
Ki [2, 4]: 951 ± 118 nM

c1ccc2nc(N3CCNCC3)ccc2c1 [Quipazine]
PERCENT INHIBITION (displacement of specific [3H]5-HT binding) [2, 8]: 3

NCCc1c[nH]c2ccc(OCc3ccccc3)cc12 [5-Benzyloxytryptamine]
Ki [2, 5]: 729 nM

O=C1NCN(c2ccccc2)C12CCN(CC1COc3ccccc3O1)CC2 (stereo not drawn) [Spiroxatrine]
PERCENT INHIBITION (displacement of specific [3H]5-HT binding) [2, 6]: 12

NCCc1c[nH]cn1 [Histamine]
PERCENT INHIBITION (displacement of specific [3H]5-HT binding) [2, 8]: 10
